Drawing on ChEMBL document CHEMBL3603799, “3-Hydroxy-4-pyridinone derivatives designed for fluorescence studies to determine interaction with amyloid protein as well as cell permeability” (Bioorg Med Chem Lett, 2015), this text covers Activity for two molecules.

This test addresses Amyloid-beta precursor protein (Homo sapiens) (UniProt P05067). The test can be described thus: Binding affinity to amyloid beta (1 to 40) (unknown origin) assessed as increase in fluorescence after 3 hrs by UV-spectra analysis.

Chain of Amyloid-beta precursor protein (Homo sapiens) (P05067 whole entry): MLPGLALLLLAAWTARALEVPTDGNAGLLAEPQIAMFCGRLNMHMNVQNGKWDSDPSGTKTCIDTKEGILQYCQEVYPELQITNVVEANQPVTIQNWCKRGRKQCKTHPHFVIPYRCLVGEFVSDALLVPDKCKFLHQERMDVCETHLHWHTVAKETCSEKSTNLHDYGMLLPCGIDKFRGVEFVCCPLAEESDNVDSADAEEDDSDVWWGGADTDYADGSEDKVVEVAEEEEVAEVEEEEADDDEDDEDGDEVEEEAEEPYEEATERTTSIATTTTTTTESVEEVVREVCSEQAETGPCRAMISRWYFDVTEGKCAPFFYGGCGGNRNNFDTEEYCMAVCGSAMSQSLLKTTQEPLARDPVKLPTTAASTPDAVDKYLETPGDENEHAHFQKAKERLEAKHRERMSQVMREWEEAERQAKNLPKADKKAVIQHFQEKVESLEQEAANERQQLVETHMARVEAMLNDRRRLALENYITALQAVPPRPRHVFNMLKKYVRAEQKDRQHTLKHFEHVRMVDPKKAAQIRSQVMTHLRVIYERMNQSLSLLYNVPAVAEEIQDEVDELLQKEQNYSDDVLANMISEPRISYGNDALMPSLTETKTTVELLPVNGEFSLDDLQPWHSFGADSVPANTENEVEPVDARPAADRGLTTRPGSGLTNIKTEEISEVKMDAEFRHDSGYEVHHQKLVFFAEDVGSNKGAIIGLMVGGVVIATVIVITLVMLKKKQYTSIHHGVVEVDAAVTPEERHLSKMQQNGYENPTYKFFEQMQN

Turning to `Cc1c(O)c(=O)ccn1-c1ccc(-c2nc3ccccc3s2)cc1`, the Activity was determined as 50%.
In the case of `Cc1c(O)c(=O)ccn1-c1ccc(-c2nc3ccccc3o2)cc1` it was 3%.
